The values that follow come from patent publication US12522628B2, “Aryl glucoside derivative and use thereof in drug” (SHANGHAI ZHEYE BIOTECHNOLOGY CO. LTD., priority 2020, dated 2026).

Molecules are shown by their SMILES. A value given as a limit tells only on which side of the number the result lay.

One series deals with blood glucose. The series can be described thus: Oral glucose tolerance test (OGTT) after continuous administration in rats for 14 days. It counts as in vivo, SD rats. The settings on record: 0.012 mg/kg oral gavage, OGTT on day 15. How it is done:
• Experimental animals: SPF male SD rats; • Compound preparation: an appropriate amount of the compounds of Example 2, Example 3, and Example 5 were weighed, and uniformly suspended with an appropriate amount of 0.5% CMC-Na solution; • Preparation of glucose solution: an appropriate amount of glucose powder was weighed and dissolved with an appropriate amount of pure water; • Dosage and method of administration: 0.012 mg/kg, oral gavage.
Experimental process: the animals were fed a normal diet with consecutive administration for 14 days, and the glucose tolerance test was performed on day 15, blood glucose was detected before administration (−30 min), before giving glucose (0 min), and 10, 30, 60, and 120 min after giving glucose solution, and the defecation of animals was observed.

For another series, the system named is rat feces suspension. The series can be described thus: Intestinal microbial metabolic stability in rat feces suspension. The settings on record: for Remaining percentage of compound: rat feces suspension, 37 C. It counts as in vitro ADME. How it is done: Methods: The collected rat feces were processed, and the feces suspension was obtained for the determination of metabolic stability. The mixed reaction system consisting of the rat feces suspension and the compound of Example 5 was incubated at 37 C for 3 h, 6 h, 12 h and 24 h. The compound of Example 5 in the incubation system was analyzed to determine the total amount of remaining compound. Wherein, “+” represents the remaining percentage being: <50%; “++” represents the remaining percentage being: 50% to 70%; “+++” represents the remaining percentage being: 70% to 90%; […].

Series [1] is described as follows: Pharmacokinetic study in rats. The settings on record: 10 mg/kg, oral gavage. It counts as in vivo, SD rats. How it is done:
• Experimental animals: SPF male SD rats; • Dosage and method of administration: 10 mg/kg, oral gavage.
Research compound: Dapagliflozin, the compound of Example 5, the compound of Example 7, the compound of Comparative Example 6; • Test method: Before administration (0), and 1, 4, 8, and 24 hours after administration, 0.2 ml of blood was collected from orbital venous plexus, anticoagulated with heparin, and plasma was collected.

Broadly, the bioavailability is dose-corrected exposure relative to a reference, in per cent. In the case of `C#CCN(C)CCNC(=O)CCCc1ccc(Cc2cc([C@@H]3O[C@H](SC)[C@@H](O)[C@H](O)[C@H]3O)ccc2C)cc1` [Example 5], the “blood sugar level of rats in OGTT” value in the series on blood glucose is recorded as “significantly reduce the blood sugar level”. In the series on rat feces suspension (incubated with microorganisms in rat feces for about 24 hours), this compound gave a remaining compound greater than 70%. Moreover, the “Remaining percentage of compound” value in the series with rat feces suspension (incubation 12 h) and in the series on rat feces suspension (incubation 24 h) was “+++ (the remaining percentage being: 70% to 90%)” each time. Besides, the “absorption in vivo after oral administration (in words)” value in series [1] is reported as “almost no absorption in vivo”. Also, in series [1], the “detection in vivo after oral administration (in words)” value is given as “hardly detected in vivo”. The bioavailability in series [1] (male, SD, rat, plasma, po, read-out: Absolute Bioavailability(F %)) was less than 1.5%.
